PubChem BioAssay (NCI)
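The concentration for 50% growth inhibition is given as GI50. TGI denotes the concentration required for complete inhibition of growth.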

How the values were obtained:
Assay in all cases: NCI tumour cell line growth inhibition, 384-well format
[1] = tested on: HCT-116 colon
[2] = tested on: SF-268 CNS
[3] = tested on: RPMI-8226 leukemia
[4] = tested on: RXF 393 renal
[5] = tested on: KM12 colon
[6] = tested on: IGROV1 ovarian
[7] = tested on: DU-145 prostate
[8] = tested on: SNB-75 CNS
[9] = tested on: SK-MEL-5 melanoma
[10] = tested on: HOP-62 NSCLC
[11] = tested on: CAKI-1 renal
[12] = tested on: LOX IMVI melanoma
[13] = tested on: 786-0 renal
[14] = tested on: MDA-MB-435 melanoma
[15] = tested on: PC-3 prostate
[16] = tested on: UACC-62 melanoma
[17] = tested on: NCI-H522 lung
[18] = tested on: T-47D breast
[19] = tested on: SNB-19 CNS
[20] = tested on: MDA-MB-468 breast
[21] = tested on: HL-60(TB) leukemia
[22] = tested on: NCI-H226 lung
[23] = tested on: A498 renal
[24] = tested on: OVCAR-5 ovarian
[25] = tested on: HCT-15 colon
[26] = tested on: COLO 205 colon
[27] = tested on: NCI-H460 NSCLC
[28] = tested on: NCI-H322M lung
[29] = tested on: K-562 leukemia
[30] = tested on: SF-539 CNS
[31] = tested on: MDA-MB-231 breast
[32] = tested on: SK-MEL-2 melanoma
[33] = tested on: U251 glioblastoma
[34] = tested on: HS 578T breast
[35] = tested on: EKVX NSCLC
[36] = tested on: OVCAR-3 ovarian
[37] = tested on: SN12C renal
[38] = tested on: UO-31 renal
[39] = tested on: SK-OV-3 ovarian
[40] = tested on: BT-549 breast
[41] = tested on: UACC-257 melanoma
[42] = tested on: CCRF-CEM leukemia
[43] = tested on: OVCAR-4 ovarian
[44] = tested on: TK-10 renal
[45] = tested on: NCI/ADR-RES ovarian
[46] = tested on: MOLT-4 leukemia
[47] = tested on: SF-295 CNS
[48] = tested on: HT29 colon
[49] = tested on: SK-MEL-28 melanoma
[50] = tested on: SW-620 colon
[51] = tested on: A549 NSCLC
[52] = tested on: MALME-3M melanoma
[53] = tested on: HOP-92 NSCLC
[54] = tested on: M14 melanoma
[55] = tested on: MCF7 breast
[56] = tested on: NCI-H23 lung
[57] = tested on: ACHN renal
[58] = tested on: HCC-2998 colon
[59] = tested on: SR leukemia

## CC[C@H](CO)Nc1nc(NCc2ccccc2)c2ncn(C(C)C)c2n1
[1]
  GI50: 16.4 µM
  TGI: 35.3 µM
[2]
  GI50: 15.3 µM
  TGI: 35.6 µM
[3]
  GI50: 17 µM
  TGI: 31.6 µM
[4]
  GI50: 14.1 µM
  TGI: 28.2 µM
[5]
  GI50: 18.8 µM
  TGI: 43.6 µM
[6]
  GI50: 26.5 µM
  TGI: 95.8 µM
[7]
  GI50: 20.9 µM
  TGI: 56.3 µM
[8]
  GI50: 16.6 µM
  TGI: 35.4 µM
[9]
  GI50: 15.4 µM
  TGI: 31.8 µM
[10]
  GI50: 21.8 µM
  TGI: 62.2 µM
[11]
  GI50: 24 µM
  TGI: 77.4 µM
[12]
  GI50: 19.3 µM
  TGI: 37.5 µM
[13]
  GI50: 22.7 µM
  TGI: 61.5 µM
[14]
  GI50: 23.2 µM
  TGI: 64.6 µM
[15]
  GI50: 21 µM
  TGI: 56.1 µM
[16]
  GI50: 13.7 µM
  TGI: 27.3 µM
[17]
  GI50: 18.3 µM
  TGI: 50.6 µM
[18]
  GI50: 24.9 µM
  TGI: 76.1 µM
[19]
  GI50: 26.8 µM
  TGI: > 100 µM
[20]
  GI50: 19.8 µM
  TGI: 37.9 µM
[21]
  GI50: 14.8 µM
  TGI: 28.1 µM
[22]
  GI50: 22.4 µM
  TGI: 68.3 µM
[23]
  GI50: 27.2 µM
  TGI: 82.1 µM
[24]
  GI50: 24.8 µM
  TGI: > 100 µM
[25]
  GI50: 19.4 µM
  TGI: 60.3 µM
[26]
  GI50: 21.3 µM
  TGI: 52.8 µM
[27]
  GI50: 16.2 µM
  TGI: 31.8 µM
[28]
  GI50: 19.1 µM
  TGI: 49.9 µM
[29]
  GI50: 36.1 µM
  TGI: > 100 µM
[30]
  GI50: 19.1 µM
  TGI: 40.3 µM
[31]
  GI50: 22.4 µM
  TGI: 62.9 µM
[32]
  GI50: 36.7 µM
  TGI: 63.6 µM
[33]
  GI50: 28.2 µM
  TGI: > 100 µM
[34]
  GI50: 15.2 µM
  TGI: 32.3 µM
[35]
  GI50: 23 µM
  TGI: 59.6 µM
[36]
  GI50: 17.2 µM
  TGI: 43.9 µM
[37]
  GI50: 21.1 µM
  TGI: 52.1 µM
[38]
  GI50: 20.9 µM
  TGI: 45 µM
[39]
  GI50: 36.5 µM
  TGI: > 100 µM
[40]
  GI50: 15.9 µM
  TGI: 33.6 µM
[41]
  GI50: 21.2 µM
  TGI: 59.5 µM
[42]
  GI50: 16.8 µM
  TGI: 33.3 µM
[43]
  GI50: 32 µM
  TGI: > 100 µM
[44]
  GI50: 25 µM
  TGI: 83.6 µM
[45]
  GI50: 22.3 µM
  TGI: 75.2 µM
[46]
  GI50: 17.3 µM
  TGI: 32.1 µM
[47]
  GI50: 25.2 µM
  TGI: 78.6 µM
[48]
  GI50: 20.1 µM
  TGI: 47.2 µM
[49]
  GI50: 16.3 µM
  TGI: 36.4 µM
[50]
  GI50: 29.5 µM
  TGI: 89.9 µM
[51]
  GI50: 27.5 µM
  TGI: > 100 µM
[52]
  GI50: 24.8 µM
  TGI: 57.8 µM

## Cc1[nH]c2ccc(F)cc2c1-c1nc2c3cccnc3c3ncccc3c2[nH]1
[53]
  GI50: 0.194 µM
  TGI: 0.742 µM
[1]
  GI50: 0.0521 µM
  TGI: 0.654 µM
[2]
  GI50: 0.025 µM
  TGI: 0.0831 µM
[54]
  GI50: 0.192 µM
  TGI: 0.472 µM
[55]
  GI50: 0.298 µM
  TGI: 40.3 µM
[56]
  GI50: 0.233 µM
  TGI: 0.704 µM
[3]
  GI50: 3.11 µM
  TGI: 15 µM
[4]
  GI50: 0.0314 µM
  TGI: 0.192 µM
[5]
  GI50: 0.266 µM
  TGI: > 100 µM
[6]
  GI50: 0.182 µM
  TGI: 32.9 µM
[7]
  GI50: 0.0607 µM
  TGI: 0.413 µM
[57]
  GI50: 0.241 µM
  TGI: 0.686 µM
[8]
  GI50: 0.23 µM
  TGI: 0.759 µM
[9]
  GI50: 0.0252 µM
  TGI: 0.119 µM
[10]
  GI50: 0.129 µM
  TGI: 0.345 µM
[11]
  GI50: 0.218 µM
  TGI: 0.572 µM
[12]
  GI50: 0.0625 µM
  TGI: 0.231 µM
[13]
  GI50: 0.176 µM
  TGI: 0.586 µM
[14]
  GI50: 0.306 µM
  TGI: > 100 µM
[15]
  GI50: 0.0699 µM
  TGI: > 100 µM
[16]
  GI50: 0.204 µM
  TGI: 0.587 µM
[17]
  GI50: 0.244 µM
  TGI: 0.852 µM
[19]
  GI50: 0.241 µM
  TGI: 0.883 µM
[20]
  GI50: 0.0745 µM
  TGI: 0.214 µM
[21]
  GI50: 0.0453 µM
  TGI: 0.176 µM
[22]
  GI50: 0.147 µM
  TGI: 0.683 µM
[23]
  GI50: 0.205 µM
  TGI: > 100 µM
[24]
  GI50: 0.298 µM
  TGI: 17.6 µM
[25]
  GI50: 0.245 µM
  TGI: 29.9 µM
[58]
  GI50: 0.0242 µM
  TGI: > 100 µM
[26]
  GI50: 0.0353 µM
  TGI: 0.141 µM
[27]
  GI50: 0.367 µM
  TGI: 4.26 µM
[28]
  GI50: 0.125 µM
  TGI: 28.5 µM
[29]
  GI50: 0.217 µM
  TGI: > 100 µM
[30]
  GI50: 0.125 µM
  TGI: 0.404 µM
[31]
  GI50: 0.228 µM
  TGI: 2.93 µM
[32]
  GI50: 0.353 µM
  TGI: 0.934 µM
[33]
  GI50: 0.0637 µM
  TGI: 0.71 µM
[34]
  GI50: 0.318 µM
  TGI: 12.1 µM
[35]
  GI50: 0.122 µM
  TGI: 14.2 µM
[36]
  GI50: 0.0278 µM
  TGI: 22.2 µM
[37]
  GI50: 0.161 µM
  TGI: 0.397 µM
[38]
  GI50: 0.319 µM
  TGI: 7.71 µM
[39]
  GI50: 0.0449 µM
  TGI: 9.45 µM
[40]
  GI50: 0.0418 µM
  TGI: 0.254 µM
[41]
  GI50: 0.227 µM
  TGI: 0.603 µM
[42]
  GI50: 0.0376 µM
  TGI: 0.136 µM
[43]
  GI50: 0.096 µM
  TGI: > 100 µM
[44]
  GI50: 0.45 µM
  TGI: 18.8 µM
[59]
  GI50: 0.0192 µM
  TGI: 0.0339 µM
[46]
  GI50: 0.0374 µM
  TGI: 0.151 µM
[47]
  GI50: 0.303 µM
  TGI: 12 µM
[48]
  GI50: 0.338 µM
  TGI: > 100 µM
[49]
  GI50: 0.272 µM
  TGI: > 100 µM
[50]
  GI50: 0.336 µM
  TGI: > 100 µM
[51]
  GI50: 0.421 µM
  TGI: > 100 µM
[52]
  GI50: 0.195 µM
  TGI: 0.743 µM
